Reference: the supplement of paper PMC11208160

assay: recombinant UMI read abundance after kanamycin selection (control-corrected) (log10(CPM+1)); higher = more efficient recombination; extreme values may be limits of the assay; sequences stand for … in AGTGCAGAGAAAATCGGCCAGTTTTCTCTGCCTGCAGTCCGCATGCCGTGGGACCCCTTGGGTTCTAACCTGTTGCCTAGATTTATGCAGCGGACTGCCTTTCTCCCAAAGTGATAAACCGG…AGGTTGGTTTCACT; site = the 11-nt donor
Description: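 Pooled E. coli donor-specificity screen for the IS621 bridge recombinase. Each library member carries a reprogrammed 11-nt donor and a full-length LE bridge RNA expressed in cis from the natural promoter, with a paired donor-binding loop (8-nt LDG + 4-nt RDG) and a target-binding loop fixed to T5. It is co-electroporated with a T5 target plasmid; recombinase is induced with 0.07 mM IPTG and recombinants are selected on kanamycin. UMIs are counted as CPM, averaged over two biological replicates and corrected by the unselected control. Molecule = full bridge RNA written as DNA, built from the T5 scaffold: LDG = donor specificity nt 1-8, RDG = reverse complement of nt 8-11.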
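Note: IS621 bridge recombinase in Escherichia coli cells against a fixed T5 target plasmid.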

“ACATATACATGGACCGGTTTTCCCGGTAATCCGTATTTGTG (site ACATGTACTCA)” and “ACATATACATGGACCGGTTTTCCCGGTAATCCGTATTTGTG (site ACATTTACTCA)” are within 0.2 log units of each other in “recombinant UMI read abundance (log10)” value: 0.021 for the first, 0.0115 for the second.

Going from “ACATCCACATGGACCGGTTTTCCCGGTAATCCGTATTTGTG (site ACATCAACTCA)” to “ACATCCACATGGACCGGTTTTCCCGGTAATCCGTATTTGTG (site ACATCCACTCA)”, the “recombinant UMI read abundance (log10)” value rises from 0.0218 to 0.309.

“ACATCCACATGGACCGGTTTTCCCGGTAATCCGTATTTGTG (site ACATCGACTCA)” and “ACATCCACATGGACCGGTTTTCCCGGTAATCCGTATTTGTG (site ACATCTACTCA)” are within 0.2 log units of each other in “recombinant UMI read abundance (log10)” value: 0.00941 for the first, 0.0155 for the second.

“ACATCTACATGGACCGGTTTTCCCGGTAATCCGTATTTGCG (site ACATCTACTCA)” and “ACATCTACATGGACCGGTTTTCCCGGTAATCCGTATTTGCG (site ACATCTACTCC)” are within 0.2 log units of each other in “recombinant UMI read abundance (log10)” value: 0.195 for the first, 0.0147 for the second.

Compared with “ACATCTACATGGACCGGTTTTCCCGGTAATCCGTATTTGCG (site ACATCTACTCG)”, “ACATCTACATGGACCGGTTTTCCCGGTAATCCGTATTTGCG (site ACATCTACTCT)” is lower in “recombinant UMI read abundance (log10)” value: 1.2 for the first, 0.353 for the second.

Compared with “ACATCTACATGGACCGGTTTTCCCGGTAATCCGTATTTGGG (site ACATCTACTCA)”, “ACATCTACATGGACCGGTTTTCCCGGTAATCCGTATTTGGG (site ACATCTACTCC)” is higher in “recombinant UMI read abundance (log10)” value: 0.0151 for the first, 0.54 for the second.

“ACATCTACATGGACCGGTTTTCCCGGTAATCCGTATTTGGG (site ACATCTACTCG)” and “ACATCTACATGGACCGGTTTTCCCGGTAATCCGTATTTGGG (site ACATCTACTCT)” are within 0.2 log units of each other in “recombinant UMI read abundance (log10)” value: 0.00576 for the first, 0.0169 for the second.

“ACATCTACATGGACCGGTTTTCCCGGTAATCCGTATTTGTG (site AAATCTACTCA)” and “ACATCTACATGGACCGGTTTTCCCGGTAATCCGTATTTGTG (site ACAACTACTCA)” are within 0.2 log units of each other in “recombinant UMI read abundance (log10)” value: 0.00563 for the first, 0.00896 for the second.

“ACATCTACATGGACCGGTTTTCCCGGTAATCCGTATTTGTG (site ACACCTACTCA)” and “ACATCTACATGGACCGGTTTTCCCGGTAATCCGTATTTGTG (site ACAGCTACTCA)” are within 0.2 log units of each other in “recombinant UMI read abundance (log10)” value: 0.00963 for the first, 0.0992 for the second.

Going from “ACATCTACATGGACCGGTTTTCCCGGTAATCCGTATTTGTG (site ACATATACTCA)” to “ACATCTACATGGACCGGTTTTCCCGGTAATCCGTATTTGTG (site ACATCAACTCA)”, the “recombinant UMI read abundance (log10)” value falls from 0.324 to 0.0141.

“ACATCTACATGGACCGGTTTTCCCGGTAATCCGTATTTGTG (site ACATCCACTCA)” and “ACATCTACATGGACCGGTTTTCCCGGTAATCCGTATTTGTG (site ACATCGACTCA)” are within 0.2 log units of each other in “recombinant UMI read abundance (log10)” value: 0.0072 for the first, 0.0136 for the second.

First: ACATCTACATGGACCGGTTTTCCCGGTAATCCGTATTTGTG (site ACATCTACTAA)
Second: ACATCTACATGGACCGGTTTTCCCGGTAATCCGTATTTGTG (site ACATCTACTCA)
The “recombinant UMI read abundance (log10)” value of the first is lower: 0.044 for the first, 0.552 for the second.

First: ACATCTACATGGACCGGTTTTCCCGGTAATCCGTATTTGTG (site ACATCTACTCC)
Second: ACATCTACATGGACCGGTTTTCCCGGTAATCCGTATTTGTG (site ACATCTACTCG)
The “recombinant UMI read abundance (log10)” value of the first is lower: 0.0178 for the first, 0.279 for the second.

“ACATCTACATGGACCGGTTTTCCCGGTAATCCGTATTTGTG (site ACATCTACTCT)” and “ACATCTACATGGACCGGTTTTCCCGGTAATCCGTATTTGTG (site ACATCTACTGA)” are within 0.2 log units of each other in “recombinant UMI read abundance (log10)” value: 0.188 for the first, 0 for the second.

“ACATCTACATGGACCGGTTTTCCCGGTAATCCGTATTTGTG (site ACATCTACTTA)” and “ACATCTACATGGACCGGTTTTCCCGGTAATCCGTATTTGTG (site ACATCTCCTCA)” are within 0.2 log units of each other in “recombinant UMI read abundance (log10)” value: 0 for the first, 0.0291 for the second.

“ACATCTACATGGACCGGTTTTCCCGGTAATCCGTATTTGTG (site ACATCTGCTCA)” and “ACATCTACATGGACCGGTTTTCCCGGTAATCCGTATTTGTG (site ACATCTTCTCA)” are within 0.2 log units of each other in “recombinant UMI read abundance (log10)” value: 0.0534 for the first, 0.234 for the second.

Compared with “ACATCTACATGGACCGGTTTTCCCGGTAATCCGTATTTGTG (site ACATGTACTCA)”, “ACATCTACATGGACCGGTTTTCCCGGTAATCCGTATTTGTG (site ACATTTACTCA)” is higher in “recombinant UMI read abundance (log10)” value: 0.023 for the first, 0.319 for the second.

“ACATCTACATGGACCGGTTTTCCCGGTAATCCGTATTTGTG (site ACCTCTACTCA)” and “ACATCTACATGGACCGGTTTTCCCGGTAATCCGTATTTGTG (site ACGTCTACTCA)” are within 0.2 log units of each other in “recombinant UMI read abundance (log10)” value: 0.0111 for the first, 0.0191 for the second.

Compared with “ACATCTACATGGACCGGTTTTCCCGGTAATCCGTATTTGTG (site ACTTCTACTCA)”, “ACATCTACATGGACCGGTTTTCCCGGTAATCCGTATTTGTG (site AGATCTACTCA)” is lower in “recombinant UMI read abundance (log10)” value: 0.371 for the first, 0.00667 for the second.

Going from “ACATCTACATGGACCGGTTTTCCCGGTAATCCGTATTTGTG (site ATATCTACTCA)” to “ACATCTACATGGACCGGTTTTCCCGGTAATCCGTATTTGTG (site CCATCTACTCA)”, the “recombinant UMI read abundance (log10)” value rises from 0.245 to 0.465.

Going from “ACATCTACATGGACCGGTTTTCCCGGTAATCCGTATTTGTG (site GCATCTACTCA)” to “ACATCTACATGGACCGGTTTTCCCGGTAATCCGTATTTGTG (site TCATCTACTCA)”, the “recombinant UMI read abundance (log10)” value falls from 0.305 to 0.0183.

First: ACATGGTCATGGACCGGTTTTCCCGGTAATCCGTATTTGTC (site ACATGGTCTGA)
Second: ACATTACCATGGACCGGTTTTCCCGGTAATCCGTATTTGCA (site ACAGTATCTTG)
The “recombinant UMI read abundance (log10)” value of the first is higher: 1.81 for the first, 1.21 for the second.

“ACATTACCATGGACCGGTTTTCCCGGTAATCCGTATTTGCA (site ACATTACCTTG)” and “ACATTATCATGGACCGGTTTTCCCGGTAATCCGTATTTGCC (site ACAGTATCTTG)” are the same in “recombinant UMI read abundance (log10)” value: 0 for the first, 0 for the second.

First: ACATTATCATGGACCGGTTTTCCCGGTAATCCGTATTTGCC (site ACATTATCTGG)
Second: ACATTGACATGGACCGGTTTTCCCGGTAATCCGTATTTGCC (site ACATTGACTGG)
The “recombinant UMI read abundance (log10)” value of the first is higher: 2.56 for the first, 2 for the second.

First: ACCACCGCATGGACCGGTTTTCCCGGTAATCCGTATTTGCG (site ACCACCGCTCG)
Second: ACCACCGCATGGACCGGTTTTCCCGGTAATCCGTATTTGCG (site CCCACCGCTCG)
The “recombinant UMI read abundance (log10)” value of the first is higher: 0.455 for the first, 0.221 for the second.

“ACCACCGCATGGACCGGTTTTCCCGGTAATCCGTATTTGCG (site GCCACCGCTCG)” and “ACCACCGCATGGACCGGTTTTCCCGGTAATCCGTATTTGCG (site TCCACCGCTCG)” are within 0.2 log units of each other in “recombinant UMI read abundance (log10)” value: 0 for the first, 0.0102 for the second.

Compared with “ACCACTCCATGGACCGGTTTTCCCGGTAATCCGTATTTGTA (site ACCACTCCTTA)”, “ACCAGCCCATGGACCGGTTTTCCCGGTAATCCGTATTTGAT (site ACCAGCCCTAT)” is lower in “recombinant UMI read abundance (log10)” value: 0.852 for the first, 0.0092 for the second.

“ACCCAGACATGGACCGGTTTTCCCGGTAATCCGTATTTGGG (site ACCAAGACTCC)” and “ACCCAGACATGGACCGGTTTTCCCGGTAATCCGTATTTGGG (site ACCCAGACTCC)” are within 0.2 log units of each other in “recombinant UMI read abundance (log10)” value: 0.0107 for the first, 0.036 for the second.

“ACCCAGACATGGACCGGTTTTCCCGGTAATCCGTATTTGGG (site ACCGAGACTCC)” and “ACCCAGACATGGACCGGTTTTCCCGGTAATCCGTATTTGGG (site ACCTAGACTCC)” are within 0.2 log units of each other in “recombinant UMI read abundance (log10)” value: 0.00445 for the first, 0.00599 for the second.

Compared with “ACCCATACATGGACCGGTTTTCCCGGTAATCCGTATTTGAA (site ACCCATACTTT)”, “ACCCGAACATGGACCGGTTTTCCCGGTAATCCGTATTTGTC (site ACACGAACTGA)” is lower in “recombinant UMI read abundance (log10)” value: 1.34 for the first, 0 for the second.

First: ACCCGAACATGGACCGGTTTTCCCGGTAATCCGTATTTGTC (site ACCCGAACTGA)
Second: ACCCGAACATGGACCGGTTTTCCCGGTAATCCGTATTTGTC (site ACGCGAACTGA)
The “recombinant UMI read abundance (log10)” value of the first is higher: 1.95 for the first, 0 for the second.

“ACCCGAACATGGACCGGTTTTCCCGGTAATCCGTATTTGTC (site ACTCGAACTGA)” and “ACCCTAGCATGGACCGGTTTTCCCGGTAATCCGTATTTGTT (site AACCTAGCTAA)” are within 0.2 log units of each other in “recombinant UMI read abundance (log10)” value: 0 for the first, 0.0322 for the second.

“ACCCTAGCATGGACCGGTTTTCCCGGTAATCCGTATTTGTT (site ACCCTAGCTAA)” and “ACCCTAGCATGGACCGGTTTTCCCGGTAATCCGTATTTGTT (site AGCCTAGCTAA)” are within 0.2 log units of each other in “recombinant UMI read abundance (log10)” value: 0 for the first, 0.00512 for the second.

“ACCCTAGCATGGACCGGTTTTCCCGGTAATCCGTATTTGTT (site ATCCTAGCTAA)” and “ACCCTGTCATGGACCGGTTTTCCCGGTAATCCGTATTTGGG (site ACCCTGTCTCC)” are within 0.2 log units of each other in “recombinant UMI read abundance (log10)” value: 0.016 for the first, 0 for the second.

Compared with “ACCGAGCCATGGACCGGTTTTCCCGGTAATCCGTATTTGCG (site ACCGAGCCTCG)”, “ACCGTAGCATGGACCGGTTTTCCCGGTAATCCGTATTTGTG (site ACCGTAGCTCA)” is higher in “recombinant UMI read abundance (log10)” value: 0.0257 for the first, 0.533 for the second.

“ACCGTATCATGGACCGGTTTTCCCGGTAATCCGTATTTGCA (site ACAGTATCTTG)” and “ACCGTATCATGGACCGGTTTTCCCGGTAATCCGTATTTGCA (site ACCGTATCTTG)” are within 0.2 log units of each other in “recombinant UMI read abundance (log10)” value: 2.58 for the first, 2.45 for the second.
